In PubChem BioAssay (NCI) one finds TGI data, which are given here for eleven molecules.

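These data come from cells grown in 96-well plates and exposed to compound for 48 hours at five concentrations. TGI denotes the concentration required for complete inhibition of growth.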

Test systems include COLO 205 colon; LOX IMVI melanoma; IGROV1 ovarian; EKVX NSCLC; A549 NSCLC; 786-0 renal; RPMI-8226 leukemia; SF-539 CNS; SF-295 CNS; OVCAR-4 ovarian; NCI-H226 lung; BT-549 breast; NCI/ADR-RES ovarian; MDA-MB-231 breast; T-47D breast.
What all share (experiment): NCI anticancer screen, dose series, 48 h

For the molecule `CC1OC(OC2C(Oc3cc(O)c4c(=O)cc(-c5ccc(O)cc5)oc4c3)OC(CO)C(O)C2O)C(O)C(O)C1O` (centres undefined), the TGI in the assay on COLO 205 colon, in the assay with LOX IMVI melanoma, with IGROV1 ovarian, with EKVX NSCLC, with A549 NSCLC and in the assay on 786-0 renal was greater than 100 µM each time. The TGI in the assay on RPMI-8226 leukemia, with SF-539 CNS, in the assay on SF-295 CNS and with OVCAR-4 ovarian was greater than 100 µM throughout.
`O=C(c1ccc(Cl)cc1)N(C(=S)N1CCN(c2ccccc2)CC1)c1ccccc1`: the TGI with COLO 205 colon, with LOX IMVI melanoma, with IGROV1 ovarian, with NCI-H226 lung, with A549 NSCLC and in the assay with 786-0 renal was greater than 100 µM throughout. Moreover, the TGI in the assay on RPMI-8226 leukemia, in the assay with SF-539 CNS, in the assay with SF-295 CNS and in the assay on OVCAR-4 ovarian was greater than 100 µM throughout.
As to `COC(=O)CC1(O)C(C=C(C)C)C(C(=O)OC)C(=O)C(C(=O)OC)C1C(=O)OC` (centres undefined), the TGI with COLO 205 colon, with BT-549 breast, in the assay on LOX IMVI melanoma, in the assay on IGROV1 ovarian, in the assay with NCI-H226 lung and with EKVX NSCLC was greater than 100 µM throughout. Besides, the TGI with A549 NSCLC, in the assay with 786-0 renal, with RPMI-8226 leukemia, in the assay with SF-539 CNS, with SF-295 CNS and with NCI/ADR-RES ovarian was greater than 100 µM throughout. The TGI in the assay on OVCAR-4 ovarian and in the assay with MDA-MB-231 breast was greater than 100 µM in each case.
Consider `Cc1ccc(S(=O)(=O)OCC23CCC(C4CC42)C2CC23)cc1` (centres undefined), for which the TGI in the assay on COLO 205 colon, with LOX IMVI melanoma, in the assay with IGROV1 ovarian, in the assay on NCI-H226 lung, in the assay with A549 NSCLC and with 786-0 renal was greater than 100 µM each time. For the same molecule, the TGI in the assay with RPMI-8226 leukemia, in the assay with SF-295 CNS and with OVCAR-4 ovarian was greater than 100 µM in each case.
For the molecule `C/C(=N/NC(=S)N(Cc1ccccn1)Cc1ccccn1)c1cnccn1`, the TGI in the assay with BT-549 breast was 12.7 µM; with T-47D breast, greater than 33.8 µM; with LOX IMVI melanoma it was 0.447 µM; in the assay on IGROV1 ovarian, 2.78 µM; with NCI-H226 lung, 0.157 µM; in the assay on EKVX NSCLC it was 7.4 µM. For the same molecule, the TGI in the assay with A549 NSCLC was 14.5 µM; with 786-0 renal, 7.97 µM; with RPMI-8226 leukemia it was greater than 37.4 µM; in the assay on SF-295 CNS it was 9.37 µM; in the assay with OVCAR-4 ovarian it was 8.14 µM; in the assay with MDA-MB-231 breast, 21.7 µM.
As for `Cc1[nH]n(-c2nc(O)c(C)c(=O)[nH]2)c(=O)c1CCO`, the TGI with COLO 205 colon, in the assay with BT-549 breast, with T-47D breast, in the assay on IGROV1 ovarian, in the assay with NCI-H226 lung and in the assay with EKVX NSCLC was greater than 100 µM in each case. The TGI with A549 NSCLC, in the assay on 786-0 renal, in the assay with RPMI-8226 leukemia, in the assay with SF-539 CNS, with SF-295 CNS and in the assay with OVCAR-4 ovarian was greater than 100 µM each time. This molecule registered a TGI in the assay with MDA-MB-231 breast greater than 100 µM.
With `O=C(CN=C(CN(c1ccccc1)c1ccccc1)Oc1c([N+](=O)[O-])cc([N+](=O)[O-])cc1[N+](=O)[O-])N1CCNCC1`, the TGI with COLO 205 colon, in the assay with BT-549 breast, with T-47D breast, with IGROV1 ovarian, in the assay on NCI-H226 lung and with EKVX NSCLC was greater than 100 µM in each case. For the same molecule, the TGI with A549 NSCLC, in the assay with 786-0 renal, in the assay on RPMI-8226 leukemia, in the assay on SF-539 CNS, in the assay with SF-295 CNS and with OVCAR-4 ovarian was greater than 100 µM in each case. The same molecule gave a TGI in the assay with MDA-MB-231 breast greater than 100 µM.
Take `Cc1ccc(-c2c(C#N)c(S)n(NS(=O)(=O)c3ccccc3)c(=O)c2C#N)cc1`: the TGI in the assay with COLO 205 colon is greater than 100 µM; in the assay with BT-549 breast it was 73.3 µM; with LOX IMVI melanoma, greater than 100 µM; in the assay with IGROV1 ovarian, 85.4 µM; with NCI-H226 lung it was 69 µM; in the assay with EKVX NSCLC, greater than 100 µM. For the same molecule, the TGI is greater than 100 µM in the assay with A549 NSCLC; greater than 100 µM in the assay on 786-0 renal; 77.4 µM with RPMI-8226 leukemia; 58.3 µM with SF-539 CNS; greater than 100 µM in the assay with SF-295 CNS; 39.8 µM with NCI/ADR-RES ovarian. Moreover, the TGI in the assay with OVCAR-4 ovarian and with MDA-MB-231 breast was greater than 100 µM in each case.
On to `CCOP(=O)(OCC)C(Cc1ccccc1)N=C(c1ccccc1)c1ccccc1` (centres undefined), for which the TGI with COLO 205 colon turned out to be 28.7 µM; with BT-549 breast it was 27 µM; in the assay on T-47D breast, 26.6 µM; with LOX IMVI melanoma, 24.7 µM; in the assay with IGROV1 ovarian, 26.8 µM; in the assay with NCI-H226 lung, 32.9 µM. Moreover, the TGI was 34.3 µM with EKVX NSCLC; 24.2 µM with A549 NSCLC; 30.2 µM with 786-0 renal; greater than 100 µM with RPMI-8226 leukemia; 25.8 µM in the assay with SF-295 CNS; 28.7 µM with NCI/ADR-RES ovarian. The same molecule came in with a TGI in the assay on OVCAR-4 ovarian of 38.3 µM.
Regarding `O/N=C1\CC2(N3CCOCC3)CCC1(Cc1ccccc1)CC2`, the TGI was greater than 100 µM in the assay with COLO 205 colon; greater than 100 µM with T-47D breast; greater than 100 µM with LOX IMVI melanoma; greater than 100 µM in the assay on IGROV1 ovarian; 83.1 µM in the assay with NCI-H226 lung; greater than 100 µM in the assay with EKVX NSCLC. In addition, the TGI is greater than 100 µM in the assay with A549 NSCLC; 41.9 µM with 786-0 renal; 58.3 µM with SF-539 CNS; 61.2 µM in the assay on SF-295 CNS; greater than 100 µM with NCI/ADR-RES ovarian; 84.8 µM with OVCAR-4 ovarian. The same molecule showed a TGI in the assay on MDA-MB-231 breast of 67 µM.
`COc1ccccc1/C=C1/Sc2scc(CC(=O)Nc3ccccc3)[n+]2C1=O`: the TGI was 65.4 µM with COLO 205 colon; 93.2 µM with BT-549 breast; greater than 100 µM in the assay with LOX IMVI melanoma; greater than 100 µM with IGROV1 ovarian; 69.7 µM in the assay with NCI-H226 lung; greater than 100 µM with EKVX NSCLC. Moreover, the TGI was greater than 100 µM in the assay on A549 NSCLC; greater than 100 µM in the assay with 786-0 renal; greater than 100 µM with SF-539 CNS; greater than 100 µM with SF-295 CNS; 59.9 µM in the assay on NCI/ADR-RES ovarian; greater than 100 µM in the assay on OVCAR-4 ovarian. Also, the TGI with MDA-MB-231 breast stood at 70.8 µM.
